Source: US7244767B2 (priority 1998, dated 2007)
Where “and” joins values, the source holds several entries; their conditions need not be identical. Equal values may be shown once. Read-outs that look alike come from different tables or passages of the source.

How the values were obtained:
[1] = Solubility (physicochemical properties of the product)
cannabinoid receptor CB1 = target: T1, cannabinoid receptor CB1 (Mus musculus, UniProt P47746); assay: Binding to cannabinoid receptor CB1, displacement of [3H]SR141716A on N18TG2 cell membranes; conditions: 300 pM [3H]SR141716A, 90 min at 30° C., read-out: Ki, CB1 receptor, N18TG2 + cells, [3H]SR141716A ligand
T1 construct: endogenous in cells; host or cells: N18TG2 mouse neuroblastoma cells
T1 sequence (P47746 whole entry): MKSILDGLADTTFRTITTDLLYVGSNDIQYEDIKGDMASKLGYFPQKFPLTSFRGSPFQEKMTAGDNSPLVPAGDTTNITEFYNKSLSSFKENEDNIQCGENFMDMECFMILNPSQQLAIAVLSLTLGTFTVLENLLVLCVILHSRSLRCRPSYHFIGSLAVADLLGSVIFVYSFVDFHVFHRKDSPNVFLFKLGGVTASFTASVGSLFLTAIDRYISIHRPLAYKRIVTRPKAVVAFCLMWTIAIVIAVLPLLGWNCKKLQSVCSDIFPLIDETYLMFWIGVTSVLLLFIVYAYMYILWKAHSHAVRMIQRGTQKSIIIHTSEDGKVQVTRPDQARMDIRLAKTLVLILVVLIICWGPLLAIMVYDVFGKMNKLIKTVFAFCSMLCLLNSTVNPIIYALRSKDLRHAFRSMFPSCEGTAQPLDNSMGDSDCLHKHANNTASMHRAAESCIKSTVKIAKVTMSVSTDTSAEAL
Method: Mouse neuroblastoma cells N18TG2 which selectively express the cannabinoid receptor CB1 and rat leukaemia basophil cells RBL-2H3+ which selectively express the cannabinoid receptor CB2 were used. […] The binding tests were carried out with membranes of the said cells resuspended in 50 mM pH 7.0 Tris buffer; 2.5 mM mgCl2; 0.8 mM EDTA; 0.05% bovine serum albumin (BSA); 0.01% ethanol and in the presence of 100 μM phenylmethylsulphonyl fluoride (PMSF; sigma) using 300 pM of [^3H]SR141716A and [^3H]WIN55,212-2, respectively, as ligand.
(§1) The membranes were incubated for 90 min at 30° C., filtered on glass microfibre filters (GFC-Whatman) and the radioactivity was measured by liquid scintillation. The specific binding was calculated using either 10 μM SR141716A or 10 μM HU-210 (obtained from Prof. R. Mechoulam, Hebrew University Jerusalem). The Ki values were calculated using the Chang-Prusoff equation and expressed as concentration μM.

MCF-7 cells = assay: Proliferation of human breast carcinoma cells, [3H]-thymidine incorporation, MCF-7; type: cell-based; conditions: MCF-7, [3H]-thymidine incorporation
Method: (§2) Human breast carcinoma cells MCF-7, EFM-19 and T-47D were used. The cells were cultured and the tests were carried out as described previously [materials and methods L. De Petrocellis et al. (1998) Proc. Natl. Acad. Sci. U.S.A., 95: 8375-8380]. The activity with respect to the proliferation of the tumour cells was evaluated on the basis of the incorporation of [^3H]-thimidine. The results are expressed as IC50 in μM.

EFM-19 cells [2] = assay: Proliferation of human breast carcinoma cells, [3H]-thymidine incorporation, EFM-19; type: cell-based; conditions: EFM-19, [3H]-thymidine incorporation
Method: as §2

cannabinoid receptor CB2 = target: T2, cannabinoid receptor CB2 (Rattus norvegicus, UniProt Q9QZN9); assay: Binding to cannabinoid receptor CB2, displacement of [3H]WIN55,212-2 on RBL-2H3 cell membranes; conditions: read-out: Ki, CB2 receptor, RBL-2H3 + cells, [3H]WIN55,212-2 ligand
T2 construct: endogenous in cells; host or cells: RBL-2H3 rat basophilic leukaemia cells
T2 sequence (Q9QZN9 1-360): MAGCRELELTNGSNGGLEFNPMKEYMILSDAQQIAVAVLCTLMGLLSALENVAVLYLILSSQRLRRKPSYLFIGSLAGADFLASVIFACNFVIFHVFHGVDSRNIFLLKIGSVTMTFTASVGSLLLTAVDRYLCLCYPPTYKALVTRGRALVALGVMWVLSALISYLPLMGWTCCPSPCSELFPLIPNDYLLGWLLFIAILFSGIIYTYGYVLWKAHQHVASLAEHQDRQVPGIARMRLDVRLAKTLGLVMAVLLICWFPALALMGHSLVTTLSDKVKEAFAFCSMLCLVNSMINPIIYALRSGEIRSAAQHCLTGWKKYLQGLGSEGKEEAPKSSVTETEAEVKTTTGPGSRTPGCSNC
Method: Mouse neuroblastoma cells N18TG2 which selectively express the cannabinoid receptor CB1 and rat leukaemia basophil cells RBL-2H3+ which selectively express the cannabinoid receptor CB2 were used. The cells were cultured as described previously [L. Faci et al. (1995) Proc. Natl. Acad. Sci. U.S.A., 92: 3376-3380; T. Bisogno et al. (1997) J. Biol. Chem., 272: 3315-3323]. [^3H]SR141716A (55 Ci/mmol) was supplied by Amersham; [^3H]WIN55, 212-2(43 Ci/mmol) was supplied by NEN. The binding tests were carried out with membranes of the said cells resuspended in 50 mM pH 7.0 Tris buffer; 2.5 mM mgCl2; 0.8 mM EDTA; 0.05% bovine serum albumin (BSA); 0.01% ethanol and in the presence of 100 μM phenylmethylsulphonyl fluoride (PMSF; sigma) using 300 pM of [^3H]SR141716A and [^3H]WIN55,212-2, respectively, as ligand.
as §1

receptor CB1 = target: T3, receptor CB1 (Mus musculus, UniProt P47746); assay: Effect on stimulation of cyclic AMP by forskolin in N18TG2 cells; type: cell-based; conditions: 1 μM forskolin, 10 min at 37° C.; read-out: IC50, c-AMP stimulated by forskolin, N18TG2 cells
T3 construct: endogenous in cells; host or cells: N18TG2 mouse neuroblastoma cells
T3 sequence (P47746 whole entry): as the sequence (P47746 whole entry) above
Method: The tests were carried out with the aim of checking whether or not the binding of the N-AVAM molecules to the receptor CB1 had any functional significance. […] After incubation, the cells were extracted and the c-AMP levels were evaluated using a suitable kit from Amersham according to the manufacturer's procedure. The data are expressed as IC50, in μM.

T-47D cells = assay: Proliferation of human breast carcinoma cells, [3H]-thymidine incorporation, T-47D; type: cell-based
Method: as §2

EFM-19 cells [3] = assay: Synergistic effect of PEA on antiproliferative activity in EFM-19 cells; type: cell-based, human; conditions: for Proliferative activity %: control = 100
Method: as §2
Human breast carcinoma cells EFM-19 were used. The test was carried out as indicated in Example C above.

DU-145 cells = assay: Proliferation of human prostate carcinoma cells DU145 with prolactin, cell count; type: cell-based
Method: Human prostate carcinoma cells DU145 were used. The cells were cultured as described previously [materials and methods T. Janssen et al. (1996) Cancer, 77: 144-149].
The cells were then incubated in 96-well plates with Eagle's Minimal Essential Medium (MEM) supplemented with 10% foetal calf serum free of endogenous steroids. After 24 hours, the medium was removed and replaced with a medium containing prolactin (PRL) (1 mIU/ml of medium). The layer of cells was trypsinized and the cells were counted by haemocytometry.
The results are expressed as IC50 in μM.

[4] = tested on: carrageenan-mediated locomotor hyperalgesia; type: in vivo
[5] = tested on: carrageenan-mediated oedema; assay: Carrageenan-mediated oedema, paw volume; type: in vivo; conditions: 5 mg/kg, oral, carrageenan = 100
Method: The method described previously [materials and methods S. Mazzari et al. (1996) Europ. J. Pharmacol., 300: 227-236] were used for the purpose of evaluating the effects of N-AVAM molecules on the hyperreactivity of sensitive nerve cells.
The test compounds were administered orally suspended in physiological saline densified with CMC. The results are expressed as a percentage of variation in the volume of the paw relative to carrageenan.

[6] = membranes, 300 pM [3H]WIN55,212-2, 90 min at 30° C.
[7] = Homo sapiens, test compound alone 1.0 μM, control = 100, read-out: Proliferative activity %

| Compound | Solubility in organic solvents, DMSO ([1]; in DMSO) [µg/mL] | Solubility in organic solvents, ethanol [1] [µg/mL] | Solubility in water [1] | Ki (cannabinoid receptor CB1) [µM] | IC50 (MCF-7 cells) [µM] | IC50 (EFM-19 cells [2]) [µM] | Ki (cannabinoid receptor CB2; [6]) [µM] | IC50 (receptor CB1) [µM] | IC50 (T-47D cells) [µM] | also measured |
| --- | --- | --- | --- | --- | --- | --- | --- | --- | --- | --- |
| CCCCCCCCCCCCCCCC(=O)NCc1ccc(O)c(OC)c1 [Example 2, N-(4-hydroxy-3-methoxybenzyl)-palmitoylamide] | > 10000 | > 10000 | sparingly soluble | 1.75 ± 0.35 | 2.1 | 1 | > 15 | 1.8 | 0.8 | – |
| CCCCC/C=C\C/C=C\C/C=C\C/C=C\CCCC(=O)NCc1ccc(O)c(OC)c1 [Example 3, N-(4-hydroxy-3-methoxybenzyl)-arachidonoylamide] | > 10000 | > 10000 | sparingly soluble | 1.5 ± 0.29 | 0.4 | 0.5 | > 15 | 1.3 | 0.3 | Proliferative activity % (EFM-19 cells [3]; test compound alone 0.5 μM): 70%; Proliferative activity % (EFM-19 cells [3]; test compound alone 1.0 μM): 43% |
| COc1cc(CNC(=O)CCCC/C=C/C(C)C)ccc1O [Capsaicin, reference compound] | – | – | – | > 10 | – | – | – | – | – | – |
| CCCCC/C=C\C/C=C\C/C=C\C/C=C\CCCC(=O)NCCO [Anandamide, reference compound] | – | – | – | – | – | – | – | – | – | activity at 1 µM (EFM-19 cells [3]; [7]): 84%; IC50 (MCF-7 cells; Homo sapiens, MCF7): 0.5 µM; IC50 (DU-145 cells; Homo sapiens, DU-145, prolactin 1 mIU/ml): 0.5 µM; IC50 (EFM-19 cells [2]; Homo sapiens): 1.5 µM; IC50 (T-47D cells; Homo sapiens, T47D): 1.9 µM |
| CCCCCCCC/C=C\CCCCCCCC(=O)NCc1ccc(O)c(OC)c1 [Example 1, N-(4-hydroxy-3-methoxybenzyl)oleylamide] | > 10000 | > 10000 | sparingly soluble | 1.64 ± 0.36 | 1.6 | 0.7 | > 15 | 1.6 | 1.6 | Proliferative activity % (EFM-19 cells [3]; test compound alone 1.0 μM): 60%; IC50 (DU-145 cells; prolactin 1 mIU/ml): 0.2 to 0.3 µM; Percentage of variation in the administered weight (hyperalgesia) ([4]; 5 mg/kg, oral, 0 min): 100%; Percentage of variation in the administered weight (hyperalgesia) ([4]; 5 mg/kg, oral, 60 min): 80%; Percentage of variation in the administered weight (hyperalgesia) ([4]; 5 mg/kg, oral, 120 min): 72%; Percentage of variation in the administered weight (hyperalgesia) ([4]; 5 mg/kg, oral, 180 min): 65%; Percentage of variation in the administered weight (hyperalgesia) ([4]; 5 mg/kg, oral, 240 min): 58%; Percentage of variation in the administered weight (hyperalgesia) ([4]; 5 mg/kg, oral, 300 min): 64%; Percentage of variation in the volume of the paw relative to carrageenan ([5]; 60 min): 75%; Percentage of variation in the volume of the paw relative to carrageenan ([5]; 120 min): 70%; Percentage of variation in the volume of the paw relative to carrageenan ([5]; 180 min): 65% |
| CCCCCCCCCCCCCCCC(=O)NCCO [N-palmitoylethanolamine, reference compound] | – | – | – | – | – | – | – | – | – | activity at 1 µM (EFM-19 cells [3]; [7]): 100%; activity at 2.5 µM (EFM-19 cells [3]; Homo sapiens, test compound alone 2.5 μM, control = 100, read-out: Proliferative activity %): 100%; activity at 5 µM (EFM-19 cells [3]; Homo sapiens, test compound alone 5.0 μM, control = 100, read-out: Proliferative activity %): 100%; activity at 10 µM (EFM-19 cells [3]; Homo sapiens, test compound alone 10 μM, control = 100, read-out: Proliferative activity %): 100%; Ki (cannabinoid receptor CB2): 0.001 ± 0.0006 µM; Percentage of variation in the administered weight (hyperalgesia) ([4]; in vivo): 100% and 82% and 80% and 76% and 64% and 66% |
| COc1cc(CNC(=O)CCCCCCCC(=O)NCc2ccc(O)c(OC)c2)ccc1O [Example 4, N,N′-bis(4-hydroxy-3-methoxybenzyl)-nonanediamide] | – | – | sparingly soluble | 1.2 ± 0.28 | – | – | – | – | – | solubility ([1]; organic solvent or mixture, in DMSO, read-out: Solubility in organic solvents, DMSO): > 10000 µg/mL |
